Assay results: ChEMBL document CHEMBL2390858, “Design, synthesis and anti-tuberculosis activity of 1-adamantyl-3-heteroaryl ureas with improved in vitro pharmacokinetic properties” (Bioorg Med Chem, 2013)
≈ marks a conversion by molar mass, not a printed value.

Legend:
[1] = test system: Staphylococcus aureus; experiment: microbe, parasite or virus in culture; settings: NRS70
[2] = test system: Proteus mirabilis; experiment: microbe, parasite or virus in culture
[3] = test system: Bacillus subtilis; experiment: microbe, parasite or virus in culture
[4] = test system: Streptococcus pyogenes; experiment: microbe, parasite or virus in culture
[5] = test system: Burkholderia cepacia; experiment: microbe, parasite or virus in culture
[6] = test system: Mycobacterium tuberculosis; experiment: microbe, parasite or virus in culture; settings: H37Rv, 168 h
[7] = test system: Enterococcus faecalis; experiment: microbe, parasite or virus in culture
[8] = test system: Streptococcus pneumoniae; experiment: microbe, parasite or virus in culture
[9] = test system: Klebsiella pneumoniae; experiment: microbe, parasite or virus in culture
[10] = test system: Staphylococcus aureus; experiment: microbe, parasite or virus in culture; settings: ATCC 29213
[11] = test system: Bacillus anthracis; experiment: microbe, parasite or virus in culture; settings: Sterne
[12] = test system: Acinetobacter; experiment: microbe, parasite or virus in culture
[13] = test system: Escherichia coli; experiment: microbe, parasite or virus in culture; settings: K-12
[14] = target: T1, Bifunctional epoxide hydrolase 2 (Homo sapiens, UniProt P34913)
T1 sequence (P34913 whole entry): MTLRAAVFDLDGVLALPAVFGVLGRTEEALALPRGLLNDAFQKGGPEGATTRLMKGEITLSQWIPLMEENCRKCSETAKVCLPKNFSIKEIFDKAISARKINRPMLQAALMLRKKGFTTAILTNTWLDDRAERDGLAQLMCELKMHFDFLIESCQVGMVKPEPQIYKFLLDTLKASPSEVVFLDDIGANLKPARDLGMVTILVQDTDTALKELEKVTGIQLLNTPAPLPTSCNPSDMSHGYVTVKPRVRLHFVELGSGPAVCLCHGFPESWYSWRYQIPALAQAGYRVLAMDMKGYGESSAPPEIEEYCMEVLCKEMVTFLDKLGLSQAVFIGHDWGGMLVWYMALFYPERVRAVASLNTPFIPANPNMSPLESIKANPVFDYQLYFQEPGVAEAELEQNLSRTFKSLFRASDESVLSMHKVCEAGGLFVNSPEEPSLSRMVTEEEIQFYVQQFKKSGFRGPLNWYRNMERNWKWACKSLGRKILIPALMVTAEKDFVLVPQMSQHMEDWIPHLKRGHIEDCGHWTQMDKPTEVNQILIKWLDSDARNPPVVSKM

[15] = test system: Pseudomonas aeruginosa; experiment: microbe, parasite or virus in culture
[16] = test system: Proteus vulgaris; experiment: microbe, parasite or virus in culture
[17] = buffer, 18 h, pH 7.4

Row | Compound | MIC [1] | MIC [2] | MIC [3] | MIC [4] | MIC [5] | MIC [6] | MIC [7] | MIC [8] | MIC [9] | MIC [10] | MIC [11] | MIC [12] | MIC [13] | IC50 [14] | MIC [15] | MIC [16] | solubility [17]
1 | Cc1nc(NS(=O)(=O)c2ccc(NC(=O)NC34CC5CC(CC(C5)C3)C4)cc2)oc1C | > 200 µg/mL | > 200 µg/mL | > 200 µg/mL | > 200 µg/mL | > 200 µg/mL | > 25 µg/mL | > 200 µg/mL | > 200 µg/mL | > 200 µg/mL | > 200 µg/mL | > 200 µg/mL | > 200 µg/mL | > 200 µg/mL | 13 nM | > 200 µg/mL | > 200 µg/mL | 27.1 µg/mL (≈ 61 µM)
2 | O=C(Nc1nnc(C2CCC2)o1)NC12CC3CC(CC(C3)C1)C2 | 50 µg/mL (≈ 158 µM) | > 200 µg/mL | 50 µg/mL (≈ 158 µM) | 100 µg/mL (≈ 316 µM) | > 200 µg/mL | 12.5 µg/mL (≈ 39.5 µM) | 100 µg/mL (≈ 316 µM) | 100 µg/mL (≈ 316 µM) | > 200 µg/mL | 50 µg/mL (≈ 158 µM) | 25 µg/mL (≈ 79 µM) | > 200 µg/mL | > 200 µg/mL | 241 nM | > 200 µg/mL | > 200 µg/mL | 10.5 µg/mL (≈ 33.2 µM)
3 | Cc1onc(NC(=O)NC23CC4CC(CC(C4)C2)C3)c1Br | 200 µg/mL (≈ 565 µM) | > 200 µg/mL | > 200 µg/mL | > 200 µg/mL |  | 100 µg/mL (≈ 282 µM) |  | > 200 µg/mL | > 200 µg/mL | 50 µg/mL (≈ 141 µM) | > 200 µg/mL | > 200 µg/mL | 50 µg/mL (≈ 141 µM) | 0.8 nM | > 200 µg/mL | > 200 µg/mL | 0.1 µg/mL (≈ 0.282 µM)
4 | O=C(Nc1ncncn1)NC12CC3CC(CC(C3)C1)C2 | > 200 µg/mL | > 200 µg/mL | > 200 µg/mL | > 200 µg/mL | > 200 µg/mL | 125 µg/mL (≈ 457 µM) | > 200 µg/mL | > 200 µg/mL | > 200 µg/mL | > 200 µg/mL | > 200 µg/mL | > 200 µg/mL | > 200 µg/mL | 79 nM | > 200 µg/mL | > 200 µg/mL | 7.2 µg/mL (≈ 26.3 µM)
5 | O=C(Nc1cccnc1)NC12CC3CC(CC(C3)C1)C2 | > 200 µg/mL | > 200 µg/mL | > 200 µg/mL | > 200 µg/mL | > 200 µg/mL | 12.5 µg/mL (≈ 46.1 µM) | > 200 µg/mL | > 200 µg/mL | > 200 µg/mL | > 200 µg/mL | > 200 µg/mL | > 200 µg/mL | > 200 µg/mL | 113 nM | > 200 µg/mL | > 200 µg/mL | 6.7 µg/mL (≈ 24.7 µM)
6 | Cc1cc(CNC(=O)NC23CC4CC(CC(C4)C2)C3)no1 | > 200 µg/mL | > 200 µg/mL | > 200 µg/mL | > 200 µg/mL | > 200 µg/mL | > 50 µg/mL | > 200 µg/mL | > 200 µg/mL | > 200 µg/mL | > 200 µg/mL | > 200 µg/mL | > 200 µg/mL | > 200 µg/mL | 1550 nM | > 200 µg/mL | > 200 µg/mL | 3 µg/mL (≈ 10.4 µM)
7 | Cc1noc(NC(=O)NC23CC4CC(CC(C4)C2)C3)c1C | > 200 µg/mL | > 200 µg/mL | > 200 µg/mL | > 200 µg/mL | > 200 µg/mL | 100 µg/mL (≈ 346 µM) | > 200 µg/mL | > 200 µg/mL | > 200 µg/mL | > 200 µg/mL |  |  | > 200 µg/mL | 20 nM | > 200 µg/mL | > 200 µg/mL | 5.7 µg/mL (≈ 19.7 µM)
8 | CCn1nc(NC(=O)NC23CC4CC(CC(C4)C2)C3)cc1C | > 200 µg/mL | > 200 µg/mL | > 200 µg/mL | > 200 µg/mL | > 200 µg/mL | 12.5 µg/mL (≈ 41.3 µM) | > 200 µg/mL | > 200 µg/mL | > 200 µg/mL | > 200 µg/mL | > 200 µg/mL | > 200 µg/mL | > 200 µg/mL | 2510 nM | > 200 µg/mL | > 200 µg/mL | 13.2 µg/mL (≈ 43.6 µM)
9 | O=C(Nc1ccon1)NC12CC3CC(CC(C3)C1)C2 | > 200 µg/mL | > 200 µg/mL | > 200 µg/mL | > 200 µg/mL | 100 µg/mL (≈ 383 µM) | 50 µg/mL (≈ 191 µM) | 100 µg/mL (≈ 383 µM) | > 200 µg/mL | > 200 µg/mL | > 200 µg/mL | > 200 µg/mL | > 200 µg/mL | > 200 µg/mL | 46 nM | > 200 µg/mL | > 200 µg/mL | 20.3 µg/mL (≈ 77.7 µM)
10 | O=C(Nc1nnc(-c2cccs2)o1)NC12CC3CC(CC(C3)C1)C2 | > 200 µg/mL | > 200 µg/mL | > 200 µg/mL | > 200 µg/mL | > 200 µg/mL | 100 µg/mL (≈ 290 µM) |  | > 200 µg/mL | > 200 µg/mL | > 200 µg/mL | > 200 µg/mL | > 200 µg/mL | > 200 µg/mL | 1570 nM | > 200 µg/mL | > 200 µg/mL | 2.2 µg/mL (≈ 6.39 µM)
11 | Cc1noc(NC(=O)NC23CC4CC(CC(C4)C2)C3)c1C#N | > 200 µg/mL | > 200 µg/mL | > 200 µg/mL | > 200 µg/mL | 200 µg/mL (≈ 666 µM) | 100 µg/mL (≈ 333 µM) | 200 µg/mL (≈ 666 µM) | > 200 µg/mL | > 200 µg/mL | > 200 µg/mL | > 200 µg/mL | > 200 µg/mL | > 200 µg/mL | 25 nM | > 200 µg/mL | > 200 µg/mL | 1.2 µg/mL (≈ 4 µM)
12 | Cc1cc(NC(=O)NC23CC4CC(CC(C4)C2)C3)no1 | > 200 µg/mL | > 200 µg/mL | 200 µg/mL (≈ 726 µM) | > 200 µg/mL | > 200 µg/mL | 27 µg/mL (≈ 98.1 µM) | > 200 µg/mL | > 200 µg/mL | > 200 µg/mL | 200 µg/mL (≈ 726 µM) | > 200 µg/mL | > 200 µg/mL | > 200 µg/mL | 136 nM | > 200 µg/mL | > 200 µg/mL | 25.9 µg/mL (≈ 94.1 µM)
13 | O=C(Nc1ccc(S(=O)(=O)Nc2ccc(Cl)nn2)cc1)NC12CC3CC(CC(C3)C1)C2 |  | 100 µg/mL (≈ 216 µM) | > 200 µg/mL | > 200 µg/mL | 100 µg/mL (≈ 216 µM) |  | 100 µg/mL (≈ 216 µM) | 100 µg/mL (≈ 216 µM) | > 200 µg/mL | 50 µg/mL (≈ 108 µM) | 1.56 µg/mL (≈ 3.38 µM) | > 200 µg/mL | > 200 µg/mL | 19 nM | > 200 µg/mL | > 200 µg/mL | 20.7 µg/mL (≈ 44.8 µM)
14 | Cc1ccnc(NS(=O)(=O)c2ccc(NC(=O)NC34CC5CC(CC(C5)C3)C4)cc2)n1 | > 200 µg/mL | > 200 µg/mL | > 200 µg/mL | > 200 µg/mL | > 200 µg/mL | > 25 µg/mL | > 200 µg/mL | > 200 µg/mL | > 200 µg/mL | > 200 µg/mL | 100 µg/mL (≈ 226 µM) | 100 µg/mL (≈ 226 µM) | > 200 µg/mL | 17 nM | > 200 µg/mL | > 200 µg/mL | 2.5 µg/mL (≈ 5.66 µM)
15 | O=C(Nc1ncccn1)NC12CC3CC(CC(C3)C1)C2 | > 200 µg/mL | > 200 µg/mL | > 200 µg/mL | > 200 µg/mL | > 200 µg/mL | 200 µg/mL (≈ 734 µM) | > 200 µg/mL | > 200 µg/mL | > 200 µg/mL | > 200 µg/mL | > 200 µg/mL | > 200 µg/mL | > 200 µg/mL | 24000 nM | > 200 µg/mL | > 200 µg/mL | 6.9 µg/mL (≈ 25.3 µM)
16 | O=C(Nc1nccnn1)NC12CC3CC(CC(C3)C1)C2 | > 200 µg/mL | > 200 µg/mL | > 200 µg/mL | > 200 µg/mL | > 200 µg/mL | 200 µg/mL (≈ 732 µM) | > 200 µg/mL | > 200 µg/mL | > 200 µg/mL | > 200 µg/mL | > 200 µg/mL | > 200 µg/mL | > 200 µg/mL | 1010 nM | > 200 µg/mL | > 200 µg/mL | 6.8 µg/mL (≈ 24.9 µM)
17 | Cc1noc(NC(=O)NC23CC4CC(CC(C4)C2)C3)c1Cl | > 200 µg/mL | > 200 µg/mL | > 200 µg/mL | > 200 µg/mL | > 200 µg/mL | 100 µg/mL (≈ 323 µM) | > 200 µg/mL | > 200 µg/mL | > 200 µg/mL | > 200 µg/mL |  |  | > 200 µg/mL | 0.5 nM | > 200 µg/mL | > 200 µg/mL | 1.5 µg/mL (≈ 4.84 µM)
18 | O=C(Nc1ccccn1)NC12CC3CC(CC(C3)C1)C2 |  | > 200 µg/mL |  | > 200 µg/mL |  |  |  | > 200 µg/mL | > 200 µg/mL |  | > 200 µg/mL | > 200 µg/mL | > 200 µg/mL | 1500 nM | > 200 µg/mL | > 200 µg/mL | 1.4 µg/mL (≈ 5.16 µM)
